Results as given in BindingDB's records for doi:10.1016/j.bmc.2016.06.011 (Florida A&M University, 2016).

Experiments:
D(4) dopamine receptor = biological target: T1, D(4) dopamine receptor (Homo sapiens, UniProt P21917); test: Displacement of [3H]N-methylspiperone from human recombinant dopamine D4 receptor incubated for […] by microbeta scintillation counting method
T1 sequence (P21917 whole entry): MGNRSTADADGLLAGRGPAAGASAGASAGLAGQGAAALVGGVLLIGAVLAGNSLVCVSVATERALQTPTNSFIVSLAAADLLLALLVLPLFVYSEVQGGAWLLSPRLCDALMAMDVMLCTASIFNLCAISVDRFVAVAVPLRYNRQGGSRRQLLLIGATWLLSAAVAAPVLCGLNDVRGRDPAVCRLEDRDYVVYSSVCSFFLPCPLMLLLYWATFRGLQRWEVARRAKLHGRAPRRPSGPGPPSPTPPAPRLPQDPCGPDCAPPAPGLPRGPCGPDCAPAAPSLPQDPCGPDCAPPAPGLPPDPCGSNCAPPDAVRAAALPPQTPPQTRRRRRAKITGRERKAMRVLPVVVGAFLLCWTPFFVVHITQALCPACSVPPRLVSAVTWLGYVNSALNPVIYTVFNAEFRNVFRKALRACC

[1] = biological target: T2, 5-hydroxytryptamine receptor 2C (Homo sapiens, UniProt P28335); test: Displacement of [3H]Mesulergine from human recombinant 5HT2C receptor incubated for […] by microbeta scintillation counting method
T2 sequence (P28335 whole entry): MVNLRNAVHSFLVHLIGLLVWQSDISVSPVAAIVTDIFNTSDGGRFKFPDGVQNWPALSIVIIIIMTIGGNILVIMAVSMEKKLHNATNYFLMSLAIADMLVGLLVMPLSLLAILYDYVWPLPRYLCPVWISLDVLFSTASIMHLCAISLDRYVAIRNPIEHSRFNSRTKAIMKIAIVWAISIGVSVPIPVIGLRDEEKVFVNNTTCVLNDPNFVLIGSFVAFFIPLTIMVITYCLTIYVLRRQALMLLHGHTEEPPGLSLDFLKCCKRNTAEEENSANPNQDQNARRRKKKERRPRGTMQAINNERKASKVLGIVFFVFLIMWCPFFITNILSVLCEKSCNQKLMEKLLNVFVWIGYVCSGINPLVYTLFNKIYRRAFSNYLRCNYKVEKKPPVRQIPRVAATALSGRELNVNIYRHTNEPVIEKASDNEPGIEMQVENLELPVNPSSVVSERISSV

[2] = biological target: 5-hydroxytryptamine receptor 2A (Homo sapiens, UniProt P28223); test: Displacement of [3H]Ketanserin from human recombinant 5HT2A receptor incubated for […] by microbeta scintillation counting method
Chain of 5-hydroxytryptamine receptor 2A (P28223 whole entry): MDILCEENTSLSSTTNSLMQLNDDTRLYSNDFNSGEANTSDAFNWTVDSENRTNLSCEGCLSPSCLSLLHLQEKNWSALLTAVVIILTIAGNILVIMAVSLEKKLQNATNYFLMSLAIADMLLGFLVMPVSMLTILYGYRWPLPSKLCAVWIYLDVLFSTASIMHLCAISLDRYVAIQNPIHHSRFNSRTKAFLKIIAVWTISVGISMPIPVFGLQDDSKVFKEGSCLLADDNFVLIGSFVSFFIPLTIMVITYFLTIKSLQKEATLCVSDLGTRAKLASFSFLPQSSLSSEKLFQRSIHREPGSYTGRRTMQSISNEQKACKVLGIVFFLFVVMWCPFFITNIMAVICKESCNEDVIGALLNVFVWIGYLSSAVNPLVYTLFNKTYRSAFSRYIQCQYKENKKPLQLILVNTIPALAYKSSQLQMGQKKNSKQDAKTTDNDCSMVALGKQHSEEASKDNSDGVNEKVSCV

| Compound | Ki (D(4) dopamine receptor) | Ki [1] | Ki [2] |
| --- | --- | --- | --- |
| OC1(c2ccc(Cl)cc2)CCN(CCCCc2nc3ccccc3s2)CC1 | 141 nM |  |  |
| OC1(c2ccc(Cl)cc2)CC2CCC(C1)N2CCCCc1nc2ccccc2s1 (centres undefined) |  | 4570 nM | > 10000 nM |
| O=C(CCCCN1CCC(n2c(=O)[nH]c3cc(Cl)ccc32)CC1)c1nc2ccccc2s1 | 1700 nM |  |  |
